In patent US20260373186A1 (Mireca Medicines GmbH, priority 2022, published 2026):
Where a name gives a salt, the structure may show the parent alone. Read-outs that look alike come from different tables or passages of the source. One block for each compound: values may come before it.

Key:
[1] = In vitro drug release from Compound 221-loaded microparticles; settings: 99% PLGA75125 4A and 1% PLGA5050-PEG5K, PBS with 1% Tween 20, 37 °C
[2] = In vitro drug release from Compound 221-loaded implants; assay type: physicochemical; settings: implants (hot melt extrusion), 99% PLGA75125 4A and 1% PLGA5050-PEG5K; PBS with 1% Tween 20, 37 °C
Protocol: (§1) Compound 221 and biodegradable polymer excipients including PLGA and PLGA-PEG were weighed and thoroughly premixed in a sealed container. The powder blend was fed into an extruder (HAAKE Twin Screw Compounder, Thermo Fisher Scientific), which was pre-set to a temperature of 80-90 °C and a screw speed of 150 rpm. The blend was heated in the extruder and recirculated in the extruder chamber through an internal loop channel for a pre-set duration (e.g., 2-30 min). The filament was extruded at pre-set screw speed (e.g, 10-300 rpm) through a die, guided by a conveying belt and cut into desired length (3-10 mm) for further testing.
(§2) The drug loading of the implants was quantitated by HPLC.

[3] = Drug loading of Compound 221-loaded implants (HPLC); assay type: physicochemical; settings: implants (hot melt extrusion), 99% PLGA75125 4A and 1% PLGA5050-PEG5K
Protocol: as §1, §2

[4] = Drug loading of Compound 221-loaded microparticles (HPLC); settings: 99% PLGA75125 4A and 1% PLGA5050-PEG5K
[5] = In vitro drug release from Compound 188-loaded microparticles; assay type: physicochemical; settings: 99% PLGA75125 4A and 1% PLGA5050-PEG5K, PBS with 1% Tween 20, 37 °C
[6] = Drug loading of Compound 188-loaded microparticles (HPLC); assay type: physicochemical; settings: 99% PLGA75125 4A and 1% PLGA5050-PEG5K
[7] = system: rd1 and rd2 photoreceptors; settings: in vivo mouse retinitis pigmentosa models; cited from earlier work
[8] = system: rd1 and rd2 photoreceptors; settings: in vitro; cited from earlier work
[9] = system: cGMP dependent protein kinase; settings: cited from earlier work
[10] = system: photoreceptors of rd1 explants; test: Photoreceptor cell death in rd1 retinal explants (TUNEL); assay type: cell-based; settings: Mus musculus
Source text: Legend: The animals at the age of postnatal day 5 (PN5) were killed by decapitation and retinas were dissected out with retinal pigment epithelium attached as described previously (Caffe, A. R.; Ahuja, P.; Holmqvist, B.; Azadi, S.; Forsell, J.; Holmqvist, I.; Soderpalm, A. K.; van Veen, T., Mouse retina explants after long-term culture in serum free medium. J Chem Neuroanat 2001, 22 (4), 263-73). The retinas were flattened out on the membranes of commercially available 6-well culture inserts, after which 1.5 ml of a custom made culturing medium was added to each well. These explants were then kept in culture for two days without any treatment after which the test analog of the invention at the desired concentration was added at a medium change at PN7 (“7” in Figure). […]
Legend: Effects of selected analogs at given concentrations of the invention on the cell death of photoreceptors of rd1 explants. The cell death was assessed by so called TUNEL stain on fixated and sectioned material, after which the number of dying cells was counted and analyzed, and compared with that from untreated rd1 explants. In order to allow more direct comparisons between the different analogs and concentrations a ratio of treated/untreated specimens was calculated. […]

Structure (SMILES): O=c1c2nc(Br)n([C@@H]3O[C@@H]4CO[P@@](=O)(S)O[C@H]4[C@H]3O)c2nc2[nH]c(-c3ccccc3)cn12 [Compound 221-BEN, 8-bromo-(β-phenyl-1,N^2-etheno)guanosine-3′,5′-cyclic monophosphorothioate, Rp-isomer, N-benzyl-2-phenylethan-1-aminium salt]
Release duration ([1]; target drug loading 30%): 43 days
Release duration [2]: 40 days
Compound 221 loading (w/w) [3]: 30.0%
Compound 221 loading (w/w) ([4]; target drug loading 30%): 22.5%

Release duration: % released in 49 days ([5]; target drug loading 20%, in 49 days): 32% released
Compound 188 loading (w/w) ([6]; target drug loading 20%): 19.6%
Structure (SMILES): Cc1ccc(-c2cn3c(=O)c4nc(Br)n([C@@H]5O[C@@H]6CO[P@@](=O)(S)O[C@H]6[C@H]5O)c4nc3[nH]2)cc1 [Compound 188-BEZ, 8-bromo-(4-methyl-β-phenyl-1,N^2-etheno)guanosine-3′,5′-cyclic monophosphorothioate, Rp-isomer, N-benzyl-2-(benzylamino)ethan-1-aminium salt]

Structure (SMILES): Nc1nc2c(nc(Br)n2[C@@H]2O[C@@H]3COP(O)(=S)O[C@H]3[C@H]2O)c(=O)[nH]1 (stereo partly drawn) [Rp-8-Br-cGMPS]
protection for rd1 and rd2 photoreceptors [7]: some protection
protection for rd1 and rd2 photoreceptors [8]: some protection

Structure (SMILES): O=c1c2nc(Br)n([C@@H]3O[C@@H]4CO[P@@](=O)(S)O[C@H]4[C@H]3O)c2nc2[nH]c(-c3ccccc3)cn12 [Compound 221-FA]
Release duration ([1]; target drug loading 10%): 22 days
Release duration [2]: 26 days
Compound 221 loading (w/w) [3]: 10.5%
Compound 221 loading (w/w) ([4]; target drug loading 10%): 1.2%

Release duration ([5]; target drug loading 30%): 29 days
Compound 188 loading (w/w) ([6]; target drug loading 30%): 26%
Structure (SMILES): Cc1ccc(-c2cn3c(=O)c4nc(Br)n([C@@H]5O[C@@H]6CO[P@@](=O)(S)O[C@H]6[C@H]5O)c4nc3[nH]2)cc1 [Compound 188-BEN, 8-bromo-(4-methyl-β-phenyl-1,N^2-etheno)guanosine-3′,5′-cyclic monophosphorothioate, Rp-isomer, N-benzyl-2-phenylethan-1-aminium salt]

Structure (SMILES): O=c1c2nc(Br)n([C@@H]3O[C@@H]4CO[P@@](=O)(S)O[C@H]4[C@H]3O)c2nc2[nH]c(-c3ccccc3)cn12 [Compound 221-Ca]
Release duration [2]: 40 days
Compound 221 loading (w/w) [3]: 30.0%

Structure (SMILES): O=c1c2nc(Br)n([C@@H]3O[C@@H]4CO[P@@](O)(=S)O[C@H]4[C@H]3O)c2nc2[nH]c(-c3ccccc3)cn12 [Rp-8-Br-PET-cGMPS]
efficacy / agonistic properties [9]: suboptimal efficacies or even partially agonistic properties
photoreceptor cell death, % of untreated at 50 µM ([10]; TUNEL, untreated = 1.0, n = 8, read-out: effect ratio of treated/untreated specimens (photoreceptor cell death)): ~78%
inhibition at 50 µM ([10]; vs untreated, read-out: reduction of photoreceptor cell death): > 20%

Compound 188 loading (w/w) ([6]; target drug loading 30%): 3%
Structure (SMILES): Cc1ccc(-c2cn3c(=O)c4nc(Br)n([C@@H]5O[C@@H]6CO[P@@](=O)(S)O[C@H]6[C@H]5O)c4nc3[nH]2)cc1 [Compound 188-Ca]

Structure (SMILES): O=c1c2nc(Br)n([C@@H]3O[C@@H]4CO[P@@](=O)(S)O[C@H]4[C@H]3O)c2nc2[nH]c(-c3ccccc3)cn12 [Compound 221-Na]
Release duration [2]: 14 days
Compound 221 loading (w/w) [3]: 17.4%

Structure (SMILES): O=c1c2nc(Br)n([C@@H]3O[C@@H]4CO[P@@](=O)(S)O[C@H]4[C@H]3O)c2nc2[nH]c(-c3ccccc3)cn12 [Compound 221-BEZ, 8-bromo-(β-phenyl-1,N^2-etheno)guanosine-3′,5′-cyclic monophosphorothioate, Rp-isomer which is N-benzyl-2-(benzylamino)ethan-1-aminium salt]
Release duration ([1]; target drug loading 30%): 35 days
Release duration [2]: 40 days
Compound 221 loading (w/w) [3]: 30.0%
Compound 221 loading (w/w) ([4]; target drug loading 30%): 14.0%

Structure (SMILES): O=c1c2nc(Br)n([C@@H]3O[C@@H]4CO[P@@](=O)(S)O[C@H]4[C@H]3O)c2nc2[nH]c(-c3ccccc3)cn12 [Compound 221-TEA]
Release duration ([1]; target drug loading 10%): 35 days
Release duration [2]: 40 days
Compound 221 loading (w/w) [3]: 15.75%
Compound 221 loading (w/w) ([4]; target drug loading 10%): 1.8%
